Data taken from US10590153B2, “Process for producing crystalline DTPMP” (Zschimmer & Schwarz Mohsdorf GmbH & Co. KG, priority 2014, dated 2020).

Legend:
Type in all cases: physicochemical
[1] = Determination of the hygroscopicity (gravimetric water absorption in desiccator at constant humidity); conditions: 22±2° C., relative humidity of 55%; for Relative water absorption: determined daily over 12 days
Protocol: In order to determine the hygroscopicity, solid samples were stored in 25 ml glass beakers in a desiccator under constant humidity. […] The water absorption of the samples was determined gravimetrically once daily over a period of 12 days as the difference in mass (see FIG. 14).
Two spray-dried powders were tested as comparison with crystallisate samples of the crystallisates of the α, β and γ crystal modification.
A DTPMP synthesis product having the quality parameters from Table 4 used as the starting slurry for the crystallisation was spray dried with a Büchi-Mini Spray Dryer B-290.

[2] = Bulk density of the samples used for the hygroscopicity test
[3] = Drying behaviour of crystallisates in dependence on residual moisture and product purity (tempering in sealed vials, visual points classification); set-up: key: 5 points=sample unchanged; 4 points=sample compacted/started to dissolve; 3 points=sample visibly started to dissolve; 2 points=sample cloudy highly viscous solution; 1 point=sample dissolved to clear solution; conditions: sealed vial, shaken
Protocol: This dependency is shown by the following example for determining the drying behaviour of crystallisates in dependence on residual moisture and product purity.
A DTPMP solid isolated by recrystallisation is characterised by residues of adhering mother liquor via the quality parameters listed in the following table. Determination of the residual moisture content by means of a halogen dryer HB 43 S/Mettler Toledo is carried out isothermally at the indicated temperature using the shutoff criterion 4 (AK4=mean weight loss is <1 mg per 90 seconds):
After a purification step, which consists in suspending the solid in water and then separating it off by means of a filtering centrifuge, the following quality criteria are obtained:
The adhering residual moisture is removed stepwise from these solid samples in a rotary evaporator at 40° C. and 5 mbar vacuum, so that a series of samples with decreasing residual moisture content is prepared from each of the two purity grades (unwashed and washed).
4 ml borosilicate vials are filled with this sample material and the filling level is adjusted to ⅔ of the height of the glass by gentle tapping. In order to minimise evaporative losses, the screw cap of each vial is additionally sealed with a polyethylene film. All the samples are shaken in parallel in a tempering block on a heating and cooling shaker ThermoTwister comfort/Quantifoil Instruments GmbH for a defined period at a defined temperature and then assessed visually. Classification is made according to the following points system: […]

[4] = Temperature 35 °C, test duration 24 h
[5] = Temperature 40 °C, test duration 24 h
[6] = Temperature 45 °C, test duration 24 h
[7] = Temperature 50 °C, test duration 24 h
[8] = Temperature 55 °C, test duration 24 h
[9] = Temperature 60 °C, test duration 24 h
[10] = Temperature 65 °C, test duration 5 h
[11] = Temperature 70 °C, test duration 5 h
[12] = Temperature 75 °C, test duration 5 h
[13] = Temperature 80 °C, test duration 5 h
[14] = Temperature 85 °C, test duration 5 h
[15] = Temperature 90 °C, test duration 5 h

| Relative water absorption [1] [% by mass/day] | Hygroscopicity / water absorption capacity (in words) ([1]; listed as crystal modification α) | Bulk density [2] [g/mL] | Hygroscopicity / water absorption capacity (in words) ([1]; listed as crystal modification β) | Hygroscopicity / water absorption capacity (in words) [1] | Hygroscopicity / water absorption capacity (in words) ([1]; listed as crystal modification γ) | Visual classification at the end of the tempering step (points system) [3, 4] | Visual classification at the end of the tempering step (points system) [3, 5] | Visual classification at the end of the tempering step (points system) [3, 6] | Visual classification at the end of the tempering step (points system) [3, 7] | Visual classification at the end of the tempering step (points system) [3, 8] | Visual classification at the end of the tempering step (points system) [3, 9] | Visual classification at the end of the tempering step (points system) [3, 10] | Visual classification at the end of the tempering step (points system) [3, 11] | Visual classification at the end of the tempering step (points system) [3, 12] | Visual classification at the end of the tempering step (points system) [3, 13] | Visual classification at the end of the tempering step (points system) [3, 14] | Visual classification at the end of the tempering step (points system) [3, 15] | Structure (SMILES) |
| --- | --- | --- | --- | --- | --- | --- | --- | --- | --- | --- | --- | --- | --- | --- | --- | --- | --- | --- |
| 0.03 | consistently low water absorption | 0.36 | – | – | – | – | – | – | – | – | – | – | – | – | – | – | – | O=P(O)(O)CN(CCN(CP(=O)(O)O)CP(=O)(O)O)CCN(CP(=O)(O)O)CP(=O)(O)O [Crystal form α, purified quality, diethylenetriamine penta(methylenephosphonic acid)] |
| 0.04 | – | 0.49 | consistently low water absorption | – | – | – | – | – | – | – | – | – | – | – | – | – | – | O=P(O)(O)CN(CCN(CP(=O)(O)O)CP(=O)(O)O)CCN(CP(=O)(O)O)CP(=O)(O)O [Crystal form β, purified quality, diethylenetriamine penta(methylenephosphonic acid)] |
| 0.003 | – | 0.59 | – | by far the lowest hygroscopicity | consistently low water absorption | – | – | – | – | – | – | – | – | – | – | – | – | O=P(O)(O)CN(CCN(CP(=O)(O)O)CP(=O)(O)O)CCN(CP(=O)(O)O)CP(=O)(O)O [Crystal form γ, purified quality, diethylenetriamine penta(methylenephosphonic acid)] |
| – | – | – | – | – | – | 5 | 5 | 5 | 5 | 5 | 4 | 2 | 2 | 2 | 2 | 2 | 2 | O=P(O)(O)CN(CCN(CP(=O)(O)O)CP(=O)(O)O)CCN(CP(=O)(O)O)CP(=O)(O)O [unwashed quality 19 [% by mass] residual moisture] |
| – | – | – | – | – | – | 5 | 5 | 5 | 4 | 4 | 3 | 2 | 1 | 1 | 1 | 1 | 1 | O=P(O)(O)CN(CCN(CP(=O)(O)O)CP(=O)(O)O)CCN(CP(=O)(O)O)CP(=O)(O)O [unwashed quality 24 [% by mass] residual moisture] |
| – | – | – | – | – | – | 5 | 5 | 5 | 5 | 4 | 3 | 1 | 1 | 1 | 1 | 1 | 1 | O=P(O)(O)CN(CCN(CP(=O)(O)O)CP(=O)(O)O)CCN(CP(=O)(O)O)CP(=O)(O)O [unwashed quality 31 [% by mass] residual moisture] |
| – | – | – | – | – | – | 5 | 5 | 5 | 5 | 5 | 3 | 1 | 1 | 1 | 1 | 1 | 1 | O=P(O)(O)CN(CCN(CP(=O)(O)O)CP(=O)(O)O)CCN(CP(=O)(O)O)CP(=O)(O)O [unwashed quality 36 [% by mass] residual moisture] |
| – | – | – | – | – | – | 5 | 5 | 5 | 5 | 5 | 3 | 1 | 1 | 1 | 1 | 1 | 1 | O=P(O)(O)CN(CCN(CP(=O)(O)O)CP(=O)(O)O)CCN(CP(=O)(O)O)CP(=O)(O)O [unwashed quality 40 [% by mass] residual moisture] |
| – | – | – | – | – | – | 5 | 5 | 5 | 5 | 5 | 3 | 1 | 1 | 1 | 1 | 1 | 1 | O=P(O)(O)CN(CCN(CP(=O)(O)O)CP(=O)(O)O)CCN(CP(=O)(O)O)CP(=O)(O)O [unwashed quality 47 [% by mass] residual moisture] |
| – | – | – | – | – | – | 5 | 5 | 5 | 5 | 5 | 2 | 1 | 1 | 1 | 1 | 1 | 1 | O=P(O)(O)CN(CCN(CP(=O)(O)O)CP(=O)(O)O)CCN(CP(=O)(O)O)CP(=O)(O)O [unwashed quality 51 [% by mass] residual moisture] |
| – | – | – | – | – | – | 5 | 5 | 5 | 5 | 5 | 5 | 5 | 5 | 5 | 5 | 5 | 5 | O=P(O)(O)CN(CCN(CP(=O)(O)O)CP(=O)(O)O)CCN(CP(=O)(O)O)CP(=O)(O)O [washed quality 11 [% by mass] residual moisture] |
| – | – | – | – | – | – | 5 | – | – | – | – | – | – | – | – | 1 | 1 | 1 | O=P(O)(O)CN(CCN(CP(=O)(O)O)CP(=O)(O)O)CCN(CP(=O)(O)O)CP(=O)(O)O [washed quality 53 [% by mass] residual moisture] |
